These results are taken from patent US6544985B2, “Dihydro-benzo [b][1,4]diazepin-2-one derivatives” (Hoffman-La Roche Inc., priority 2001, dated 2003).

The melting point is the temperature, or range, at which the solid turns liquid. `CN(C)c1cc2c(cc1Cl)NC(=O)CC(c1cccc(C#N)c1)=N2` [Example 1, 3-(7-Chloro-8-dimethylamino-4-oxo-4,5-dihydro-3H-benzo[b][1,4]diazepin-2-yl)-benzonitrile] gave a melting point greater than 250 °C.

`CN(C)c1cc2c(cc1Cl)NC(=O)CC(c1cccc(-n3ccnn3)c1)=N2` [Example 2, 8-Chloro-7-dimethylamino-4-(3-[1,2,3]triazol-1-yl-phenyl)-1,3-dihydro-benzo[b][1,4]diazepin-2-one] returned a melting point of 222 to 225 °C.

In turn, `CN(C)c1cc2c(cc1C#Cc1ccccc1)NC(=O)CC(c1cccc(C#N)c1)=N2` [Example 4, 3-(8-Dimethylamino-4-oxo-7-phenylethynyl-4,5-dihydro-3H-benzo[b][1,4]diazepin-2-yl)-benzonitrile] displayed a melting point of 215 to 216 °C.

`CN(C)c1cc2c(cc1C#Cc1ccccc1)NC(=O)CC(c1cccc(-n3ccnn3)c1)=N2` [Example 5, 7-Dimethylamino-8-phenylethynyl-4-(3-[1,2,3]triazol-1-yl-phenyl)-1,3-dihydro-benzo[b][1,4]diazepin-2-one] came in with a melting point of 185 to 186 °C.

Consider `Cc1cc(-c2cccc(C3=Nc4cc(N(C)C)c(Cl)cc4NC(=O)C3)c2)on1` [Example 6, 8-Chloro-7-dimethylamino-4-[3-(3-methyl-isoxazol-5-yl)-phenyl]-1,3-dihydro-benzo[b][1,4]diazepin-2-one], for which the melting point was in the range of 212 to 215 °C.

`Cc1cc(-c2cc(C3=Nc4cc(N(C)C)c(Cl)cc4NC(=O)C3)ccn2)on1` [Example 10, 8-Chloro-7-dimethylamino-4-[2-(3-methyl-isoxazol-5-yl)-pyridin-4-yl]-1,3-dihydro-benzo[b][1,4]diazepin-2-one]: the melting point was greater than 250 °C.

Take `COCCN(C)c1cc2c(cc1Cl)NC(=O)CC(c1ccnc(-c3cc(C)no3)c1)=N2` [Example 12, 8-Chloro-7-[(2-methoxy-ethyl)-methyl-amino]-4-[2-(3-methyl-isoxazol-5-yl)-pyridin-4-yl]-1,3-dihydro-benzo[b][1,4]diazepin-2-one]: the melting point is 213 °C.

For the compound `COCCN(C)c1cc2c(cc1Cl)NC(=O)CC(c1cccc(-n3nncc3CO)c1)=N2` [Example 13, 8-Chloro-4-[3-(5-hydroxymethyl-[1,2,3]triazol-1-yl)-phenyl]-7-[(2-methoxy-ethyl)-methyl-amino]-1,3-dihydro-benzo[b][1,4]diazepin-2-one], the melting point was 185 °C.

`COCCN(C)c1cc2c(cc1Cl)NC(=O)CC(c1cccc(-n3ccnn3)c1)=N2` [Example 14, 8-Chloro-7-[(2-methoxy-ethyl)-methyl-amino]-4-(3-[1,2,3]triazol-1-yl-phenyl)-1,3-dihydro-benzo[b][1,4]diazepin-2-one] came in with a melting point of 156 °C.

In the case of `CN(C)c1cc2c(cc1Cl)NC(=O)CC(c1ccnc(C#N)c1)=N2` [Example 15, 4-(7-Chloro-8-dimethylamino-4-oxo-4,5-dihydro-3H-benzo[b][1,4]diazepin-2-yl)-pyridine-2-carbonitrile], the melting point is 216 °C.

On to `CN(C)c1cc2c(cc1C(F)(F)F)NC(=O)CC(c1cccc(-n3nncc3CO)c1)=N2` [Example 17, 7-Dimethylamino-4-[3-(5-hydroxymethyl-[1,2,3]triazol-1-yl)-phenyl]-8-trifluoromethyl-1,3-dihydro-benzo[b][1,4]diazepin-2-one], for which the melting point came to 210 °C.

`Cc1cc(-c2cccc(C3=Nc4cc(N(C)C)c(C(F)(F)F)cc4NC(=O)C3)c2)on1` [Example 18, 7-Dimethylamino-4-[3-(3-methyl-isoxazol-5-yl)-phenyl]-8-trifluoromethyl-1,3-dihydro-benzo[b][1,4]diazepin-2-one] registered a melting point of 223 °C.

On to `CN(C)Cc1cnnn1-c1cccc(C2=Nc3cc(N(C)C)c(Cl)cc3NC(=O)C2)c1` [Example 20, 8-Chloro-7-dimethylamino-4-[3-(5-dimethylaminomethyl-[1,2,3]triazol-1-yl)-phenyl]-1,3-dihydro-benzo[b][1,4]diazepin-2-one], for which the melting point lay within 145 to 160 °C.

`COCc1cc(-c2cccc(C3=Nc4cc(N(C)C)c(Cl)cc4NC(=O)C3)c2)on1` [Example 21, 8-Chloro-7-dimethylamino-4-[3-(3-methoxymethyl-isoxazol-5-yl)-phenyl]-1,3-dihydro-benzo[b][1,4]diazepin-2-one] yielded a melting point of 191 °C.

`CN(C)c1cc2c(cc1C(F)(F)F)NC(=O)CC(c1ccnc(C#N)c1)=N2` [Example 22, 4-(8-Dimethylamino-4-oxo-7-trifluoromethyl-4,5-dihydro-3H-benzo[b][1,4]diazepin-2-yl)-pyridine-2-carbonitrile]: the melting point came to 248 °C.

For the compound `O=C1CC(c2cccc(-n3ccnc3)c2)=Nc2cc(OCC(F)(F)F)c(-c3ccccc3F)cc2N1` [Example 23, 8-(2-Fluoro-phenyl)-4-(3-imidazol-1-yl-phenyl)-7-(2,2,2-trifluoro-ethoxy)-1,3-dihydro-benzo[b][1,4]diazepin-2-one], the melting point fell in the range of 208 to 210 °C.

With `O=C1CC(c2cccc(-n3nncc3CO)c2)=Nc2cc(OCC(F)(F)F)c(-c3ccccc3F)cc2N1` [Example 26, 8-(2-Fluoro-phenyl)-4-[3-(5-hydroxymethyl-[1,2,3]triazol-1-yl)-phenyl]-7-(2,2,2-trifluoro-ethoxy)-1,3-dihydro-benzo[b][1,4]diazepin-2-one], the melting point was in the range of 232 to 234 °C.

`CCN(C)c1cc2c(cc1Cl)NC(=O)CC(c1cccc(-n3nncc3CO)c1)=N2` [Example 28, 8-Chloro-7-(ethyl-methyl-amino)-4-[3-(5-hydroxymethyl-[1,2,3]triazol-1-yl)-phenyl]-1,3-dihydro-benzo[b][1,4]diazepin-2-one]: the melting point was 206 °C (dec.).

For `CN(C)c1cc2c(cc1Cl)NC(=O)CC(c1cccc(-c3cc(CO)no3)c1)=N2` [Example 31, 8-Chloro-7-dimethylamino-4-[3-(3-hydroxymethyl-isoxazol-5-yl)-phenyl]-1,3-dihydro-benzo[b][1,4]diazepin-2-one], the melting point is 132 °C.

`CN(C)c1cc2c(cc1C(F)(F)F)NC(=O)CC(c1cccc(-c3ccnn3C)c1)=N2` [Example 33, 7-Dimethylamino-4-[3-(2-methyl-2H-pyrazol-3-yl)-phenyl]-8-trifluoromethyl-1,3-dihydro-benzo[b][1,4]diazepin-2-one] gave a melting point of 225 °C.

With `CN(c1cc2c(cc1Cl)NC(=O)CC(c1ccnc(C#N)c1)=N2)C1CC1` [Example 34, 4-[7-Chloro-8-(cyclopropyl-methyl-amino)-4-oxo-4,5-dihydro-3H-benzo[b][1,4]diazepin-2-yl]-pyridine-2-carbonitrile], the melting point was in the range of 199 to 201 °C.

`Cc1noc(-c2cccc(C3=Nc4cc(N(C)C)c(Cl)cc4NC(=O)C3)c2)c1CO` [Example 35, 8-Chloro-7-dimethylamino-4-[3-(4-hydroxymethyl-3-methyl-isoxazol-5-yl)-phenyl]-1,3-dihydro-benzo[b][1,4]diazepin-2-one] came in with a melting point of 232 to 233 °C.

In turn, `Cc1cc(-c2cccc(C3=Nc4cc(N(C)C5CC5)c(Cl)cc4NC(=O)C3)c2)on1` [Example 36, 8-Chloro-7-(cyclopropyl-methyl-amino)-4-[3-(3-methyl-isoxazol-5-yl)-phenyl]-1,3-dihydro-benzo[b][1,4]diazepin-2-one] came in with a melting point of 195 to 197 °C.

Regarding `CN(C)Cc1cnnn1-c1cccc(C2=Nc3cc(N(C)C)c(C(F)(F)F)cc3NC(=O)C2)c1` [Example 38, 7-Dimethylamino-4-[3-(5-dimethylaminomethyl-[1,2,3]triazol-1-yl)-phenyl]-8-trifluoromethyl-1,3-dihydro-benzo[b][1,4]diazepin-2-one], the melting point was 200 °C.

The compound `CN(C)c1cc2c(cc1Cl)NC(=O)CC(c1cccc(-c3cc(CO)nn3C)c1)=N2` [Example 39, 8-Chloro-7-dimethylamino-4-[3-(5-hydroxymethyl-2-methyl-2H-pyrazol-3-yl)-phenyl]-1,3-dihydro-benzo[b][1,4]diazepin-2-one] had a melting point of 184 °C.

As to `N#Cc1cc(C2=Nc3cc(N4CCCC4)c(C(F)(F)F)cc3NC(=O)C2)ccn1` [Example 40, 4-(4-Oxo-8-pyrrolidin-1-yl-7-trifluoromethyl-4,5-dihydro-3H-benzo[b][1,4]diazepin-2-yl)-pyridine-2-carbonitrile], the melting point was 188 °C (dec.).

`O=C1CC(c2cccc(-n3nncc3CO)c2)=Nc2cc(N3CCCC3)c(C(F)(F)F)cc2N1` [Example 41, 4-[3-(5-Hydroxymethyl-[1,2,3]triazol-1-yl)-phenyl]-7-pyrrolidin-1-yl-8-trifluoromethyl-1,3-dihydro-benzo[b][1,4]diazepin-2-one] displayed a melting point of 134 °C.

`CN(C)c1cc2c(cc1F)NC(=O)CC(c1cccc(-n3nncc3CO)c1)=N2` [Example 42, 7-Dimethylamino-8-fluoro-4-[3-(5-hydroxymethyl-[1,2,3]triazol-1-yl)-phenyl]-1,3-dihydro-benzo[b][1,4]diazepin-2-one] yielded a melting point of 75 °C.

`CN(C)Cc1cnnn1-c1cccc(C2=Nc3cc(N(C)C)c(F)cc3NC(=O)C2)c1` [Example 43, 7-Dimethylamino-4-[3-(5-dimethylaminomethyl-[1,2,3]triazol-1-yl)-phenyl]-8-fluoro-1,3-dihydro-benzo[b][1,4]diazepin-2-one]: the melting point amounted to 181 °C.

In turn, `CN(C)c1cc2c(cc1F)NC(=O)CC(c1cccc(-c3cc(CO)no3)c1)=N2` [Example 44, 7-Dimethylamino-8-fluoro-4-[3-(3-hydroxymethyl-isoxazol-5-yl)-phenyl]-1,3-dihydro-benzo[b][1,4]diazepin-2-one] gave a melting point of 187 °C.

Regarding `CN(C)c1cc2c(cc1Cl)NC(=O)CC(c1cccc(-n3nncc3CN3CCCC3)c1)=N2` [Example 45, 8-Chloro-7-dimethylamino-4-[3-(5-pyrrolidin-1-ylmethyl-[1,2,3]triazol-1-yl)-phenyl]-1,3-dihydro-benzo[b][1,4]diazepin-2-one], the melting point is 180 to 182 °C.
